Measured values reported in PubChem BioAssay (NCI).
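Briefly, cells in 96-well plates were exposed to five compound concentrations for 48 h, and endpoints were estimated by linear interpolation. GI50: concentration for 50% inhibition of growth. Definition used: TGI = concentration required for complete inhibition of growth.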

Experiments:
Assay in all cases: growth of human tumour cells (NCI), 48 h
PC-3 prostate = system: PC-3 prostate
SF-539 CNS = system: SF-539 CNS
SK-MEL-28 melanoma = system: SK-MEL-28 melanoma
RXF 393 renal = system: RXF 393 renal
SK-OV-3 ovarian = system: SK-OV-3 ovarian
SF-268 CNS = system: SF-268 CNS
786-0 renal = system: 786-0 renal
HOP-92 NSCLC = system: HOP-92 NSCLC
TK-10 renal = system: TK-10 renal
COLO 205 colon = system: COLO 205 colon
MALME-3M melanoma = system: MALME-3M melanoma
NCI-H522 lung = system: NCI-H522 lung
T-47D breast = system: T-47D breast
M14 melanoma = system: M14 melanoma
MCF7 breast = system: MCF7 breast
ACHN renal = system: ACHN renal
OVCAR-5 ovarian = system: OVCAR-5 ovarian
SK-MEL-2 melanoma = system: SK-MEL-2 melanoma
A498 renal = system: A498 renal
MOLT-4 leukemia = system: MOLT-4 leukemia
K-562 leukemia = system: K-562 leukemia
EKVX NSCLC = system: EKVX NSCLC
NCI-H23 lung = system: NCI-H23 lung
UO-31 renal = system: UO-31 renal
HOP-62 NSCLC = system: HOP-62 NSCLC
CCRF-CEM leukemia = system: CCRF-CEM leukemia
HCT-116 colon = system: HCT-116 colon
HS 578T breast = system: HS 578T breast
HCT-15 colon = system: HCT-15 colon

COc1ccc(C2CC(c3ccc4ccccc4c3)=NN2c2nc(O)c(C3=c4cc(OC)ccc4=NC3=O)s2)cc1 (stereo not drawn)
GI50 (PC-3 prostate): 67.5 nM
TGI (PC-3 prostate): 334 nM
GI50 (SF-539 CNS): 741 nM
TGI (SF-539 CNS): 4340 nM
GI50 (SK-MEL-28 melanoma): 93.2 nM
TGI (SK-MEL-28 melanoma): 334 nM
GI50 (RXF 393 renal): 26.6 nM
TGI (RXF 393 renal): 83.1 nM
GI50 (SK-OV-3 ovarian): 130 nM
TGI (SK-OV-3 ovarian): 431 nM
GI50 (SF-268 CNS): 61.5 nM
TGI (SF-268 CNS): 241 nM
GI50 (786-0 renal): 28 nM
TGI (786-0 renal): 86.9 nM
GI50 (HOP-92 NSCLC): 131 nM
TGI (HOP-92 NSCLC): 358 nM
GI50 (TK-10 renal): 90.5 nM
TGI (TK-10 renal): 371 nM
GI50 (COLO 205 colon): 38.2 nM
TGI (COLO 205 colon): 129 nM
GI50 (MALME-3M melanoma): 24.3 nM
TGI (MALME-3M melanoma): 65.5 nM
GI50 (NCI-H522 lung): 51.9 nM
TGI (NCI-H522 lung): 154 nM
GI50 (T-47D breast): 40.1 nM
TGI (T-47D breast): 184 nM
GI50 (M14 melanoma): 72 nM
TGI (M14 melanoma): 726 nM
GI50 (MCF7 breast): 31.5 nM
TGI (MCF7 breast): 750 nM
GI50 (ACHN renal): 67.8 nM
TGI (ACHN renal): 419 nM
GI50 (OVCAR-5 ovarian): 115 nM
TGI (OVCAR-5 ovarian): 1350 nM
GI50 (SK-MEL-2 melanoma): 178 nM
TGI (SK-MEL-2 melanoma): 497 nM
GI50 (A498 renal): 124 nM
TGI (A498 renal): 300 nM
GI50 (MOLT-4 leukemia): 110 nM
TGI (MOLT-4 leukemia): 910 nM
GI50 (K-562 leukemia): 66.2 nM
TGI (K-562 leukemia): > 32300 nM
GI50 (EKVX NSCLC): 89.8 nM
TGI (EKVX NSCLC): 355 nM
GI50 (NCI-H23 lung): 34.8 nM
TGI (NCI-H23 lung): 191 nM
GI50 (UO-31 renal): 202 nM
TGI (UO-31 renal): 414 nM
GI50 (HOP-62 NSCLC): 63.3 nM
TGI (HOP-62 NSCLC): 158 nM
GI50 (CCRF-CEM leukemia): 284 nM
TGI (CCRF-CEM leukemia): > 43300 nM
GI50 (HCT-116 colon): 243 nM
TGI (HCT-116 colon): 660 nM
GI50 (HS 578T breast): 41.8 nM
TGI (HS 578T breast): 614 nM
GI50 (HCT-15 colon): 97.3 nM
TGI (HCT-15 colon): 1090 nM
